# Publication PMC8621456, “New Investigations with Lupane Type A-Ring Azepane Triterpenoids for Antimycobacterial Drug Candidate Design” (International Journal of Molecular Sciences, 2021)
# Like-named read-outs stand apart in the source and are kept apart here. Marks after values point to notes of the source that are not given here.
# Columns and labels:
# [1] = system: M. tuberculosis strain H37Rv; type: cell-based, Mycobacterium tuberculosis; details: 2× the MIC
# H37Rv (rpoB^S450L) [2] = details: cited from earlier work
# H37Rv (gyrA^D94K) [3] = details: cited from earlier work
# H37Rv (rpoB^S450L) [4] = type: cell-based, Mycobacterium tuberculosis
# H37Rv (katG^del) = assay: microbe, parasite or virus in culture; type: cell-based; details: Mycobacterium tuberculosis, isoniazid mono-resistant strain
# H37Rv (gyrA^D94K) [5] = type: cell-based, Mycobacterium tuberculosis
compound,measurement,setting,value
"C=C(C)[C@@H]1CC[C@]2(CO)CC[C@]3(C)[C@H](CC[C@@H]4[C@@]5(C)CCCNC(C)(C)[C@@H]5CC[C@]43C)[C@@H]12 [Compound 1, azepanobetulin]",FoR (order of magnitude stated in text),[1],10^−6
same,MIC (µM) H37Rv (rpoB^S450L),H37Rv (rpoB^S450L) [2],4 * µM
same,MIC (µM) H37Rv (gyrA^D94K),H37Rv (gyrA^D94K) [3],4 * µM
"C=C(C)[C@@H]1CC[C@]2(C)CC[C@]3(C)[C@H](CC[C@@H]4[C@@]5(C)CCCNC(C)(C)[C@@H]5CC[C@]43C)[C@@H]12 [Compound 2, azepano-lupeol]",MIC (µM) H37Rv (rpoB^S450L),H37Rv (rpoB^S450L) [4],4 µM
same,MIC,H37Rv (katG^del),4 µM
same,MIC (µM) H37Rv (gyrA^D94K),H37Rv (gyrA^D94K) [5],4 µM
C=C(C)[C@@H]1CC[C@]2(CN)CC[C@]3(C)[C@H](CC[C@@H]4[C@@]5(C)CCCNC(C)(C)[C@@H]5CC[C@]43C)[C@@H]12 [Compound 3],MIC (µM) H37Rv (rpoB^S450L),H37Rv (rpoB^S450L) [4],4 µM
same,MIC,H37Rv (katG^del),4 µM
same,MIC (µM) H37Rv (gyrA^D94K),H37Rv (gyrA^D94K) [5],8 µM
C=C(C)[C@@H]1CC[C@]2(COC(=O)c3ccccc3C(=O)O)CC[C@]3(C)[C@H](CC[C@@H]4[C@@]5(C)CCCNC(C)(C)[C@@H]5CC[C@]43C)[C@@H]12 [Compound 4],MIC (µM) H37Rv (rpoB^S450L),H37Rv (rpoB^S450L) [4],8 µM
same,MIC,H37Rv (katG^del),8 µM
same,MIC (µM) H37Rv (gyrA^D94K),H37Rv (gyrA^D94K) [5],16 µM
C=C(C)[C@@H]1CC[C@]2(COC(=O)c3cccnc3)CC[C@]3(C)[C@H](CC[C@@H]4[C@@]5(C)CCCNC(C)(C)[C@@H]5CC[C@]43C)[C@@H]12 [Compound 5],MIC (µM) H37Rv (rpoB^S450L),H37Rv (rpoB^S450L) [4],8 µM
same,MIC,H37Rv (katG^del),4 µM
same,MIC (µM) H37Rv (gyrA^D94K),H37Rv (gyrA^D94K) [5],8 µM
C=C(C)[C@@H]1CC[C@]2(COS(=O)(=O)c3ccc(C)cc3)CC[C@]3(C)[C@H](CC[C@@H]4[C@@]5(C)CCCNC(C)(C)[C@@H]5CC[C@]43C)[C@@H]12 [Compound 6],MIC (µM) H37Rv (rpoB^S450L),H37Rv (rpoB^S450L) [4],4 µM
same,MIC,H37Rv (katG^del),4 µM
same,MIC (µM) H37Rv (gyrA^D94K),H37Rv (gyrA^D94K) [5],4 µM
C=C(C)[C@@H]1CC[C@]2(C=NNC(=O)c3ccncc3)CC[C@]3(C)[C@H](CC[C@@H]4[C@@]5(C)CCCNC(C)(C)[C@@H]5CC[C@]43C)[C@@H]12 [Compound 7],MIC (µM) H37Rv (rpoB^S450L),H37Rv (rpoB^S450L) [4],0.5 µM
same,MIC,H37Rv (katG^del),8 µM
same,MIC (µM) H37Rv (gyrA^D94K),H37Rv (gyrA^D94K) [5],0.5 µM
C=C(C)[C@@H]1CC[C@]2(C(=O)NC(CO)Cc3ccccc3)CC[C@]3(C)[C@H](CC[C@@H]4[C@@]5(C)CCCNC(C)(C)[C@@H]5CC[C@]43C)[C@@H]12 (some centres unmarked) [Compound 8],MIC (µM) H37Rv (rpoB^S450L),H37Rv (rpoB^S450L) [4],4 µM
same,MIC,H37Rv (katG^del),4 µM
same,MIC (µM) H37Rv (gyrA^D94K),H37Rv (gyrA^D94K) [5],4 µM
C=C(C)[C@@H]1CC[C@]2(C(=O)N3CCN(C)CC3)CC[C@]3(C)[C@H](CC[C@@H]4[C@@]5(C)CCCNC(C)(C)[C@@H]5CC[C@]43C)[C@@H]12 [Compound 9],MIC (µM) H37Rv (rpoB^S450L),H37Rv (rpoB^S450L) [4],2 µM
same,MIC,H37Rv (katG^del),1 µM
same,MIC (µM) H37Rv (gyrA^D94K),H37Rv (gyrA^D94K) [5],2 µM
C=C(C)[C@@H]1CC[C@]2(C(=O)NC3CCCCC3)CC[C@]3(C)[C@H](CC[C@@H]4[C@@]5(C)CCCNC(C)(C)[C@@H]5CC[C@]43C)[C@@H]12 [Compound 10],MIC (µM) H37Rv (rpoB^S450L),H37Rv (rpoB^S450L) [4],4 µM
same,MIC,H37Rv (katG^del),4 µM
same,MIC (µM) H37Rv (gyrA^D94K),H37Rv (gyrA^D94K) [5],4 µM
C=C(C)[C@@H]1CC[C@]2(COC(C)=O)CC[C@]3(C)[C@H](CC[C@@H]4[C@@]5(C)CCCN(C(C)=O)C(C)(C)[C@@H]5CC[C@]43C)[C@@H]12 [Compound 11],MIC (µM) H37Rv (rpoB^S450L),H37Rv (rpoB^S450L) [4],4 µM
same,MIC (µM) H37Rv (gyrA^D94K),H37Rv (gyrA^D94K) [5],8 µM
C=C(C)[C@@H]1CC[C@]2(COC(C)=O)CC[C@]3(C)[C@H](CC[C@@H]4[C@@]5(C)CCCN(C(=O)c6cccnc6)C(C)(C)[C@@H]5CC[C@]43C)[C@@H]12 [Compound 12],MIC (µM) H37Rv (rpoB^S450L),H37Rv (rpoB^S450L) [4],32 µM
same,MIC (µM) H37Rv (gyrA^D94K),H37Rv (gyrA^D94K) [5],>32 µM
CC(=O)[C@@H]1CC[C@]2(COS(=O)(=O)c3ccc(C)cc3)CC[C@]3(C)[C@H](CC[C@@H]4[C@@]5(C)CCCNC(C)(C)[C@@H]5CC[C@]43C)[C@@H]12 [Compound 13],MIC (µM) H37Rv (rpoB^S450L),H37Rv (rpoB^S450L) [4],8 µM
same,MIC,H37Rv (katG^del),8 µM
same,MIC (µM) H37Rv (gyrA^D94K),H37Rv (gyrA^D94K) [5],16 µM
C=C(CBr)[C@@H]1CC[C@]2(COC(C)=O)CC[C@]3(C)[C@H](CC[C@@H]4[C@@]5(C)CCCNC(C)(C)[C@@H]5CC[C@]43C)[C@@H]12 [Compound 14],MIC (µM) H37Rv (rpoB^S450L),H37Rv (rpoB^S450L) [4],>32 µM
same,MIC,H37Rv (katG^del),16 µM
same,MIC (µM) H37Rv (gyrA^D94K),H37Rv (gyrA^D94K) [5],>32 µM
C=C(CN=[N+]=[N-])[C@@H]1CC[C@]2(COC(C)=O)CC[C@]3(C)[C@H](CC[C@@H]4[C@@]5(C)CCCNC(C)(C)[C@@H]5CC[C@]43C)[C@@H]12 [Compound 15],MIC (µM) H37Rv (rpoB^S450L),H37Rv (rpoB^S450L) [4],>32 µM
same,MIC,H37Rv (katG^del),32 µM
same,MIC (µM) H37Rv (gyrA^D94K),H37Rv (gyrA^D94K) [5],>32 µM
CC1(C)CCC23CCC4(C)C(CCC5C6(C)CCCNC(C)(C)C6CCC54C)C2C1OC3 (centres unmarked) [Compound 17],MIC (µM) H37Rv (rpoB^S450L),H37Rv (rpoB^S450L) [4],8 µM
same,MIC,H37Rv (katG^del),8 µM
same,MIC (µM) H37Rv (gyrA^D94K),H37Rv (gyrA^D94K) [5],16 µM
CC(C)=C1CCC=C2CC[C@]3(C)[C@H](CC[C@@H]4[C@@]5(C)CCCNC(C)(C)[C@@H]5CC[C@]43C)[C@H]21 [Compound 18],MIC (µM) H37Rv (rpoB^S450L),H37Rv (rpoB^S450L) [4],16 µM
same,MIC (µM) H37Rv (gyrA^D94K),H37Rv (gyrA^D94K) [5],8 µM
same,FoR (order of magnitude stated in text),[1],10^−6
"C#CCNC(=O)[C@]12CC[C@@H](C(=C)C)[C@@H]1[C@H]1CC[C@@H]3[C@@]4(C)CCCNC(C)(C)[C@@H]4CC[C@@]3(C)[C@]1(C)CC2 [Compound 20, 17-(Propargyl)-3-deoxo-3a-homo-3a-aza-lup-20(29)-en-carboxamide]",MIC (µM) H37Rv (rpoB^S450L),H37Rv (rpoB^S450L) [4],8 µM
same,MIC,H37Rv (katG^del),4 µM
same,MIC (µM) H37Rv (gyrA^D94K),H37Rv (gyrA^D94K) [5],4 µM
"NNC(=O)c1ccncc1 [Isoniazid, reference compound]",MIC (µM) H37Rv (rpoB^S450L),H37Rv (rpoB^S450L) [4],0.06 µM
same,MIC,H37Rv (katG^del),> 2 µM
same,MIC (µM) H37Rv (gyrA^D94K),H37Rv (gyrA^D94K) [5],0.06 µM
same,FoR (order of magnitude stated in text),[1],10^−4
"COc1c(N2C[C@@H]3CCCN[C@@H]3C2)c(F)cc2c(=O)c(C(=O)O)cn(C3CC3)c12 [Moxifloxacin, reference compound]",MIC (µM) H37Rv (rpoB^S450L),H37Rv (rpoB^S450L) [4],0.03 µM
same,MIC,H37Rv (katG^del),0.03 µM
same,MIC (µM) H37Rv (gyrA^D94K),H37Rv (gyrA^D94K) [5],>2 µM
"O=[N+]([O-])c1cn2c(n1)OC[C@@H](OCc1ccc(OC(F)(F)F)cc1)C2 [Pretomanid, reference compound]",MIC (µM) H37Rv (rpoB^S450L),H37Rv (rpoB^S450L) [4],0.06 µM
same,MIC,H37Rv (katG^del),0.06 µM
same,MIC (µM) H37Rv (gyrA^D94K),H37Rv (gyrA^D94K) [5],0.125 µM
"CO[C@H]1/C=C/O[C@@]2(C)Oc3c(C)c(O)c4c(O)c(c(/C=N/N5CCN(C)CC5)c(O)c4c3C2=O)NC(=O)/C(C)=C\C=C\[C@H](C)[C@H](O)[C@@H](C)[C@@H](O)[C@@H](C)[C@H](OC(C)=O)[C@@H]1C [Rifampin, reference compound]",MIC (µM) H37Rv (rpoB^S450L),H37Rv (rpoB^S450L) [4],>1 µM
same,MIC,H37Rv (katG^del),≤ 0.004 µM
same,MIC (µM) H37Rv (gyrA^D94K),H37Rv (gyrA^D94K) [5],≤0.004 µM
